Laboratory results from US4289645A (priority 1980, dated 1981).
“And” between values parts separate entries of the source, which are not always exact repeats. Equal values may be shown once. Read-outs that look alike come from different tables or passages of the source.

Key:
[1] = Test for identification of mu-amines compatible with hydroquinone (Example 6); assay type: physicochemical; parameters: key: An asterisk (*) in a column indicates a positive result; conditions: for Step 4: Not mu-Amine / Step 4: Possible mu-Amine: 10 g amine, 10 g hydroquinone, 80 g water; for Step 4: Not mu-Amine: precipitation after 3 min stirring; for Step 4: Possible mu-Amine: no precipitate after 3 min stirring; for Step 6: Possible mu-Amine: passes unhindered through 5 micron filter
Text: The steps of this test are as follows:
Step 1: To a 1 pint glass jar which can be equipped with a cover lid add 80.0 grams of demineralized water and 10.0 grams of the amine to be tested.
Step 2: Stir the contents of the jar for one minute, preferably via a magnetic stirrer. If the amine is a solid, stir until complete dissolution into the water is attained.
Step 4: Stir the contents of the jar for three minutes. If precipitation within the jar occurs, then the amine is not a mu-amine. If no precipitate formation within the jar is evident, the amine may possibly be a mu-amine, so proceed to Step 5.
Step 5: Seal the jar and stir vigorously for seven minutes.
Step 6: After stirring, filter the contents of the jar through a 5 micron filter paper via suction. […] If the contents of the jar pass unhindered through the filter paper, the amine may possibly be a mu-amine and Steps 7 and 8 should be performed.
Step 7: Remove a 1.0 ml aliquot from the filtration flask or receiver (i.e., an aliquot of the former jar contents) with a syringe.
Step 8: Inject the contents of the syringe into the room temperature oxygen scavenger apparatus described in Example 4 above which contains air-saturated, demineralized water and sufficient sodium hydroxide to result in a pH 9-10 range in the reaction flask. If at least 70% of the dissolved oxygen initially present in the air-saturated water is removed within one minute after injection, the amine is definitely a mu-amine. If at least 70% of the dissolved oxygen is not removed within one minute, then the amine is not a mu-amine.
Reported below in Table 7 are the results of tests using the above described procedure for various amines. An asterisk (*) in a column indicates a positive result.

[2] = Compatibility of amines with hydroquinone in solution (description); assay type: physicochemical
Text: To provide convenient single-drum treatments, it was decided to test-formulate various dioxo aromatic compounds with neutralizing amines.

[3] = Oxygen scavenging of hydroquinone/mu-amine, ambient temperature (Example 7); conditions: Table 8; 60 seconds, 23-25 °C, 103 ppm hydroquinone + 103 ppm mu-amine
Method: The flask was filled with deionized water which had been stripped of some dissolved oxygen by bubbling nitrogen through a diffuser stone. The pH was adjusted to the desired level with sodium hydroxide. The flask was sealed with a rubber septum, the dissolved oxygen probe and the pH electrode. A magnetic stirrer bar was left in the flask for mixing. The mixer was turned on, and dissolved oxygen and temperature readings were recorded until the dissolved oxygen reached a constant value. Next, the appropriate quantity of additive was injected through the septum using a hypodermic syringe. The initial mole ratio of treatment to dissolved oxygen was determined by weighing feed chemical and measuring the oxygen concentration. […] Dissolved oxygen and temperature readings were then taken at appropriate time intervals.
Using the same apparatus and procedure as described in Example 4 above, oxygen scavenging experiments were performed by injecting 1 ml of stock solution into a glass vessel containing 1070 ml of air-saturated, demineralized water adjusted to the appropriate pH with 7 N sodium hydroxide. The results of these tests are given in Table 8 below in terms of % oxygen removal at 60 seconds. […] The final pH values indicated are for the test water.

[4] = for mu-amine required to effect dissolution: added to saturated aqueous hydroquinone (10.0 g hydroquinone, 89.5 g water)
Method: Volumes of mu-amines required to effect dissolution were recorded and converted to weights via density.

[5] = Oxygen scavenging at various concentrations and weight ratios of hydroquinone and mu-amine (Example 9)
Method: Using the same apparatus and procedure as described in Example 4 above, oxygen scavenging experiments were performed by injecting 1 ml of stock solution into a glass vessel containing 1070 ml of air-saturated, demineralized water adjusted to the appropriate pH with 7 N sodium hydroxide. […] The final pH values indicated are for the test water.
(§1) The stock solution concentrations are presented in terms of weight % aqueous. The stock solutions were each 100 grams total. […] The tests were conducted at ambient temperature (23°-25° C.).

[6] = Dissolution and storage stability of hydroquinone/methoxypropylamine solutions (Example 11); assay type: physicochemical
Method: The following 25 gram solutions were prepared and sealed in glass bottles (components listed in order of addition):
Fifty (50) grams of each of the following solutions were prepared in glass bottles, sealed and placed on a shaker for two hours: […]

[7] = Thermal stability of amines (description); assay type: physicochemical; conditions: of the amines tested
[8] = Oxygen scavenging of hydroquinone/mu-amine in hot water flow system (Example 8); conditions: Table 10; 6.7 ppm hydroquinone + 6.7 ppm mu-amine, 78±1 °C, 3-5 psig, 240±10 s, pH 9.7
Text: The specific experimental conditions were:
Reaction Time=240±10 seconds
The initial oxygen levels are reported as parts per billion (ppb).

[9] = cited from earlier work
[10] = cited from earlier work; for % O2 Removed, 1 Minute: hydroquinone: pH 8.6, 22.5 °C, 0.94 mole/mole O2
[11] = cited from earlier work; remark: listed apart in the source
[12] = cited from earlier work; for % O2 Removed: Table 1, 78±3 °C, 4±1 psig, about 4 min, feedwater 58-100 ppm, initial O2 1.8-2.3 ppm; for oxygen scavenging in the test water: conclusion from Table 1
[13] = for % O2 Removed: 60 s
Method: as §1
The tests were conducted at ambient temperature (23°-25° C.).

rats = conditions: conclusion from Table 4; cited from earlier work
[14] = conclusion from Table 6; cited from earlier work
[15] = hydroquinone alone in water; cited from earlier work
[16] = high pressures; cited from earlier work
[17] = 1.5% mu-amine, 10.0% hydroquinone (6.67:1)
[18] = 90.0% mu-amine, 10.0% hydroquinone (1:9)
[19] = hydrazine: pH 9.2, 26.5 °C, 10.5 mole/mole O2

Compound: NC1CCCCC1 [Cyclohexylamine, reference compound]
- Step 4: Not mu-Amine [1]: *
- compatibility with hydroquinone in solution [2]: precipitated out of solution

Compound: CC(O)CNCC(C)O (stereo not drawn) [Diisopropanolamine]
- Step 4: Possible mu-Amine [1]: *
- Step 6: Possible mu-Amine [1]: *
- % O2 Removed [3]: 86%

Compound: CN(C)CCCN [Dimethylaminopropylamine]
- Step 4: Possible mu-Amine [1]: *
- Step 6: Possible mu-Amine [1]: *
- % O2 Removed [3]: 76%
- mu-amine required to effect dissolution [4]: 1.7 grams
- % O2 Removed At 60 Seconds [5, 17]: 94%
- % O2 Removed At 60 Seconds ([5]; 30.0% mu-amine, 10.0% hydroquinone (1:3)): 99%
- % O2 Removed At 60 Seconds [5, 18]: 98%

Compound: NCCN [Ethylenediamine]
- Step 4: Possible mu-Amine [1]: *
- Step 6: Possible mu-Amine [1]: *
- % O2 Removed [3]: 85%

Compound: NCCCCCCN [Hexamethylenediamine, reference compound]
- Step 4: Not mu-Amine [1]: *

Compound: COCCCN [Methoxypropylamine]
- Step 4: Possible mu-Amine [1]: *
- Step 6: Possible mu-Amine [1]: *
- lowest practical MOPA concentration in the mixture ([6]; aqueous 10% hydroquinone): 2%
- mu-amine required to effect dissolution [4]: 1.7 grams
- thermal stability [7]: most thermally stable
- % O2 Removed [8]: 99%
- % O2 Removed At 60 Seconds [5, 17]: 96%
- % O2 Removed At 60 Seconds ([5]; 2.0% mu-amine, 10.0% hydroquinone (5:1)): 96%
- % O2 Removed At 60 Seconds ([5]; 3.0% mu-amine, 10.0% hydroquinone (3.33:1)): 96%
- % O2 Removed At 60 Seconds ([5]; 15.0% mu-amine, 15.0% hydroquinone (1:1)): 95%
- % O2 Removed At 60 Seconds ([5]; 20.0% mu-amine, 20.0% hydroquinone (1:1)): 98%
- % O2 Removed At 60 Seconds ([5]; 30.0% mu-amine, 30.0% hydroquinone (1:1)): 98%
- % O2 Removed At 60 Seconds ([5]; 40.0% mu-amine, 40.0% hydroquinone (1:1)): 94%
- % O2 Removed At 60 Seconds [5, 18]: 94%

Compound: NCCO [Monoethanolamine]
- Step 4: Possible mu-Amine [1]: *
- Step 6: Possible mu-Amine [1]: *
- % O2 Removed [3]: 75%

Compound: CC(O)CN (stereo not drawn) [Monoisopropanolamine]
- Step 4: Possible mu-Amine [1]: *
- Step 6: Possible mu-Amine [1]: *
- % O2 Removed [8]: 98%

Compound: C1COCCN1 [Morpholine, reference compound]
- Step 4: Not mu-Amine [1]: *
- compatibility with hydroquinone in solution [2]: precipitated out of solution

Compound: C1CN2CCN1CC2 [Triethylenediamine, reference compound]
- Step 4: Not mu-Amine [1]: *

Compound: NCCNCCNCCN [Triethylenetetramine]
- Step 4: Possible mu-Amine [1]: *
- Step 6: Possible mu-Amine [1]: *
- % O2 Removed [3]: 89%

Compound: NN [hydrazine]
- % O2 Removed ([9]; control run 1: 1.6 ppm, pH 8.8, steam load 11, initial O2 13.0 ppb): 69%
- % O2 Removed ([9]; control run 2: 1.1 ppm, pH 9.4, steam load 15, initial O2 4.0 ppb): 50%
- % O2 Removed ([9]; control run 3: 1.2 ppm, pH 8.6, steam load 15, initial O2 6.0 ppb): 60%
- % O2 Removed ([9]; control run 4: 1.0 ppm, pH 8.8, steam load 15, initial O2 5.8 ppb): 55%
- % O2 Removed ([9]; control run 5: 0.8 ppm, pH 9.4, steam load 11, initial O2 3.5 ppb): 31%
- % O2 Removed ([9]; control run 6: 1.6 ppm, pH 9.6, steam load 14, initial O2 4.0 ppb): 30%
- % O2 Removed, 5 Minutes [10, 19]: 2%
- % O2 Removed, 1 Minute [10, 19]: 1%
- pH of maximum oxygen scavenging efficacy ([11]; in solution, Cohn and Powell 1954): 10.0-10.5
- rate of reaction with oxygen ([11]; low temperatures such as room temperature): very slow

Compound: Oc1ccc(O)cc1 [hydroquinone]
- active hydroquinone concentration attainable in stable aqueous solution ([6]; 1 to 1 with methoxypropylamine, sealed storage 12 days): up to 40%
- Dissolution time ([4]; 6.3 g hydroquinone in 89.5 g demineralized water, solutions #1, #2, #3): 23 min and 19 min and 21 min
- MOPA required to dissolve hydroquinone ([4]; 10.0 g hydroquinone in neat MOPA): 12.5 grams
- % O2 Removed [12]: 97%
- oxygen scavenging in the test water [12]: at least equivalent to, if not better than, hydrazine
- % O2 Removed ([13]; 0 methoxypropylamine, 1.0% hydroquinone): 9%
- % O2 Removed ([13]; 0 methoxypropylamine, 3.0% hydroquinone): 17%
- % O2 Removed ([13]; 0 methoxypropylamine, 6.0% hydroquinone): 27%
- % O2 Removed ([13]; 1.0% methoxypropylamine, 1.0% hydroquinone): 10%
- % O2 Removed ([13]; 1.0% methoxypropylamine, 6.0% hydroquinone): 78%
- % O2 Removed ([13]; 3.0% methoxypropylamine, 3.0% hydroquinone): 74%
- % O2 Removed ([13]; 6.0% methoxypropylamine, 1.0% hydroquinone): 17%
- % O2 Removed ([13]; 6.0% methoxypropylamine, 6.0% hydroquinone): 93%
- effect of mu-amine addition on oxygen scavenging efficacy ([13]; conclusion from Table 12): increases the oxygen scavenging efficacy
- % O2 Removed ([9]; 1.9 ppm actives, pH 8.4, steam load 15, initial O2 8.0 ppb): 88%
- % O2 Removed ([9]; 1.9 ppm actives, pH 8.4, steam load 15, initial O2 10.0 ppb): 90%
- efficacy in treating boiler feedwater ([9]; conclusion from Tables 2 and 3): efficacious in treating boiler feedwater and compared favorably with hydrazine
- toxicity versus hydrazine (rats): significantly less toxic as compared to hydrazine
- reactivity at low temperature with oxygen versus hydrazine ([10]; conclusion from Table 5): superiority of hydroquinone, as compared to hydrazine
- % O2 Removed, 1 Minute [10, 19]: 29%
- thermal stability versus hydrazine [14]: superior thermal stability
- aqueous hydroquinone solubility [15]: about 7%

Compound: Nc1ccccc1N [o-phenylenediamine]
- % O2 Removed [12]: 10%
- oxygen scavenging in the test water [12]: ineffective

Compound: Nc1ccc(N)cc1 [p-phenylenediamine]
- % O2 Removed [12]: 35%
- oxygen scavenging in the test water [12]: ineffective

Compound: Oc1cccc(O)c1 [resorcinol]
- % O2 Removed [12]: 0%
- oxygen scavenging in the test water [12]: ineffective

Compound: CCC(C)N (stereo not drawn) [sec-Butylamine]
- Step 4: Possible mu-Amine [1]: *
- Step 6: Possible mu-Amine [1]: *
- % O2 Removed [3]: 74%
- compatibility with hydroquinone in solution [2]: compatible with hydroquinone in solution

Compound: O=S([O-])[O-].[Na+].[Na+] [sodium sulfite]
- decomposition in the boiler [16]: decomposes in the boiler to form sulfur dioxide and hydrogen sulfide

Compound: CC(C)(C)N [tert-Butylamine, reference compound]
- Step 4: Not mu-Amine [1]: *
- compatibility with hydroquinone in solution [2]: insoluble mass

Compound: Dimethyl(iso)propanolamine
- Step 4: Possible mu-Amine [1]: *
- Step 6: Possible mu-Amine [1]: *
- % O2 Removed [3]: 73%
